Experimental data: US20230069886A1, “AROMATIC SULPHONAMIDES DERIVATIVES THAT INHIBITS PDI A3, THEIR SYNTHESIS AND USE” (Uniwersytet Jagiellonski, priority 2020, published 2023)
Values after ≈ are worked out from the molar mass of the structure shown.

How the values were obtained:
HT-29 = assay: MTT antiproliferative assay, 72 h, HT-29; type: cell-based, human; settings: 72 hours exposition
Experimental: Anticancer activity of selected compounds of invention, PDI A3-inhibitors has been also tested in vitro in antiproliferative assay in normoxic and hypoxic conditions as well in estrogen-stimulated cancer cells. In the experiment, cells were seeded on 96-well plates (Sarstedt, Germany) in appropriate culture medium at a density of 10^5 cells/mL 24 h before adding the tested compounds. Cells were treated with each compound in four concentrations in the range 0.1-100 μg/mL. […] After 72 h of compound treatment at 37° C., 5% CO2 humid atmosphere and in wo different oxygen level conditions: 21%—normal and <1%—hypoxia. In some experiments the MDA-MB-231 and MCF-7 cells were seeded with or without 200 nM estradiol and after 24 h the tested compounds were added. […] Briefly, cells were fixed with 50 μL/well of 50% (w/v) trichloroacetic acid (Avantor Performance Materials, Gliwice, Poland). After 1 h incubation, plates were washed several times with tap water and 50 μL of 0.4% (w/v) solution of sulforhodamine B (Sigma-Aldrich, Germany) in 1% (v/v) acetic acid (Avantor Performance Materials, Gliwice, Poland) was added to each well. After 30 min incubation at room temperature, unbound dye was washed out with 1% (v/v) acetic acid, whereas bound dye was solubilized with 10 mM unbuffered TRIS (Avantor Performance Materials, Gliwice, Poland) solution. The entire procedure was performed using a BioTek EL-406 washing station (BioTek Instruments, USA). After additional 30 min, absorbance was read using a Biotek Hybrid H4 reader (BioTek Instruments, USA) at 540 nm wavelength. […] Absorbance was measured using a Biotek Hybrid H4 reader at 570 nm wavelength for MTT assay.
Compounds at each concentration were tested in triplicate in a single experiment and each experiment was repeated at least three times independently. Results are presented as mean IC50±SD.

arterial thrombosis = assay: In vivo models of arterial thrombosis; set-up: species or system rat or mice; settings: FIG. 5
Experimental: To confirm antithrombotic activity of compounds of invention, inhibitors of PDIA3, pharmacological activity of selected compounds was tested in vivo in the rat or mice model of arterial thrombosis. Wistar rats were anaesthetized with pentobarbital (40 mg/kg, i.p.) and placed in a supine position on a heated (37° C.) operating table. Arterial thrombosis was induced by electrical stimulation of the right common carotid artery, as previously described (Kramkowski et al., 2012). Briefly, the anode, a stainless steel L-shaped wire, was inserted under the artery and connected to a constant current generator. The cathode was attached subcutaneously to the hind limb. The artery was stimulated (1 mA) for 10 min. Fifty-five minutes after the beginning of stimulation, the segment of the common carotid artery containing the formed thrombus was dissected and opened lengthwise, and the thrombus was completely removed and air-dried at room temperature for 24 h. Thrombus was then weighed in a blinded manner. Antithrombotic effects of compounds of invention in mice was analyzed using intravital fluorescence confocal microscopy as described previously (Hayashi T et al., 2008). […] Changes in fluorescence intensity were measured as described previously (Hayashi T et al., 2008, Kramkowski et al., 2002)

[1] = system: MDA-MB-231 cell transmigration across IL-1β-stimulated hLMVECs; assay: Transendothelial migration of MDA-MB-231 cells across hLMVEC monolayer; type: cell-based, human; settings: IL-1β 10 ng/mL (6 hours)-stimulated hLMVECs, 24 h co-culture, FIG. 6
Experimental: To assess whether compounds of invention, PDI A3-inhibitors are also effective as inhibitors of cancer cell transmigration through endothelium the transmigration assay with MDA-MB-231/lung microvascular endothelium was used as described previously (Stojak et al., 2018). Cell migration was assayed in 24-well, 6.5-mm internal-diameter Transwell plates (8.0 μm pore size; BD Pharmingen). Human lung microvascular endothelial cells (hLMVECs) were seeded into 24-well plates (seeding density 5×10^4 cells/insert) on the upper side of the filter and left to grow to confluence. After confluent monolayer formation, hLMVECs were pre-treated with 10 ng/mL IL-1β for 6 h. Prior to use in transmigration assay, cancer cells were pre-incubated with various concentrations (3, 10, 30, 50, 100 μM) of tested inhibitors of PDIA3, C-3390, C-3399 for 30 min. Then, MDA-MB-231 cells (each 5×10^4 per well) were placed into upper chambers and tested PDI inhibitors at various concentrations (1, 10, 30, 50, 100 μM) were given. Lower chambers were filled with medium containing chemoattractant (20% FBS or 100 ng/mL SDF-1α). After 24 h of co-culture, hLMVEC monolayers and non-migrating cancer cells on the upper surface of the membrane were removed. […] The cell number was determined by measuring the fluorescence using plate reader. […]

MDA-MB-231 = assay: MTT antiproliferative assay, 48 h, MDA-MB-231; type: cell-based, human; settings: 48-hour exposition, read-out: Cytotoxicity, IC50, μM MDA-MB-231
Experimental: (§1) Anticancer activity of compounds of invention, PDI A3-inhibitors has been tested in vitro in classical antiproliferative assay in various cancer cells lines. Monolayer tumor cell lines MDA-MB-231 (human mammary breast adenocarcinoma), MCF-7 (human breast adenocarcinoma, estrogen-positive), HT-1080 (human fibrosarcoma) and Caco-2 (human colon adenocarcinoma) were cultured in standard medium DMEM (Dulbecco's modified Eagle's medium) (“Sigma”) supplemented with 10% foetal bovine serum (“Sigma”). About 2000-4000 cells per well (depending on line nature) were placed in 96-well plates and after 24 h compounds were added to the wells. Untreated cells were used as a control. The plates were incubated for 48 h, 37° C., 5% CO2. The number of surviving cells was determined using 3-(4,5-dimethylthiazol-2-yl)-2,5-diphenyltetrazolinium bromide (MTT). MTT-test: after incubating culture medium was removed and 200 μL fresh medium with 20 μL MTT (2 mg/mL in HBSS) was added in each well of the plate. After incubation (3 hr., 37° C., 5% CO2), the medium with MTT was removed and 200 μL DMSO were added at once to each sample. The samples were tested at 540 nm on Thermo Scientific Multiskan EX microplate photometer. The half-maximal inhibitory concentration (IC50) of each compound was calculated using Graph Pad Prism® 3.0.

HT-1080 = assay: MTT antiproliferative assay, 48 h, HT-1080; type: cell-based, human; settings: 48-hour exposition, read-out: Cytotoxicity, IC50, μM HT-1080
Experimental: as §1

COC(=O)C1CN1S(=O)(=O)c1ccc2c(C=O)c(N(C)C)ccc2c1 (centres unmarked) [Compound C-3390, Methyl 1-[[6-(dimethylamino)-5-formyl-2-naphthyl]sulfonyl]aziridine-2-calboxylate]
IC50 [μg/ml] HT-29 normal (HT-29): 33.6 ± 2.9 µg/mL (≈ 92.7 µM) | Anti-thrombotic effects in vivo (arterial thrombosis): anti-thrombotic effects | Inhibition of MDA-MB-231 cell transmigration [1]: inhibited MDA-MB-231 cell transmigration | IC50 (MDA-MB-231): 18 ± 0.1 µM | IC50 (HT-1080): 7.9 ± 0.9 µM
